Measurements taken from the supplement of paper PMC7801607.

Test system: Plasmodium falciparum Dd2 asexual blood stage

Structure (SMILES) | IC50 [µM]
O=c1oc2ccc(Br)cc2cc1CSc1ncc[nH]1 | > 5
O=S(=O)(NCB(O)O)c1ccc(-c2nnn[nH]2)cc1C(F)(F)F | > 5
Cc1ncc([N+](=O)[O-])n1CC(O)CN1CCOCC1 (stereo not given) | > 5
NCCCc1ccccc1C(=O)Nc1ncc([N+](=O)O)s1 | > 5
COc1ccc(C[C@@H](C)[C@@H](C)Cc2ccc(OC)c(OC)c2)cc1OC | > 5
O=C(NCc1ccc2c3c(cccc13)C(=O)N2)c1cccs1 | > 5
c1cnc(NCc2ccc(CNc3ncccn3)cc2)nc1 | > 5
CCCCN1C[C@H](O)[C@@H](O)[C@H](O)[C@H]1CO | > 5
O=C(CC1Sc2ncnn2C1=O)Nc1ccc(Br)cc1 (stereo not given) | > 5
N=C(N)c1ccc(COc2ccc(Cl)cc2)cc1 | > 5
O=C(Cc1ccccc1F)Nc1nc2ccccc2[nH]1 | > 5
O=C(Nc1nnc(-c2ccc(Cl)cc2)o1)c1ccc(F)cc1 | > 5
O=C(CCCC(F)(F)F)N1CCC(c2nc(-c3nccs3)no2)CC1 | > 5
N#CCN1C(=O)COc2cc(F)c(N3C(=O)c4ccccc4C3=O)cc21 | > 5
OC[C@@H]1CC[C@H](n2cnc3c(O)ncnc32)O1 | > 5
COc1ccc(COc2cc3oc(=O)c4cc(C(C)O)ccc4c3cc2OC)cc1 (stereo not given) | > 5
O[C@@](Cn1cnnn1)(c1ccc(F)cc1F)C(F)(F)c1ccc(-c2ccc(OCC(F)(F)F)cc2)cn1 | > 5
O=C(O)/C=C/C=C/c1cccc(Oc2cc(Cl)cc(Cl)c2)c1 | > 5
O=C(Nc1ccc(Cl)c(C(F)(F)F)c1)C(CCCl)C(=O)Nc1ccc(Cl)c(C(F)(F)F)c1 | > 5
Nc1nc(C(F)(F)F)cc2c1[nH]c(=O)n2Cc1ccccc1 | > 5
O=C(O)c1ccc(-n2nc(-c3ccccc3O)nc2-c2ccccc2O)cc1 | > 5

The remaining lines, values ahead:

IC50 [µM] | Structure (SMILES)
> 5 | CC(=N)N1CC[C@H](SC2=C(C(=O)O)N3C(=O)[C@@H]([C@@H](C)O)[C@H]3C2)C1
> 5 | O=C(NC(=O)N1CCCc2ccccc21)c1cccc(Cl)c1
> 5 | O=C(NCCN1CCCCC1)c1cccc(C(F)(F)F)c1
> 5 | NC(=O)C(c1ccccc1)(c1ccccc1)[C@H]1CCCN(CCc2ccc3c(c2)CCO3)C1
> 5 | COc1ccc(NC(=O)CC2Sc3ncnn3C2=O)cc1 (stereo not given)
> 5 | O=C(NO)C1(CS(=O)(=O)c2ccc(Oc3ccc(Cl)cc3)cc2)CCOCC1
> 5 | C[C@H]1COc2c(N3CCN(C)CC3)c(F)cc3c(=O)c(C(=O)O)cn1c23
> 5 | CC1=C(/C=C/C(C)=C/C=C/C(C)=C/C(=O)Nc2ccc(O)cc2)C(C)(C)CCC1
> 5 | CC(C)(C)NC(=O)[C@@H]1C[C@@H]2CCCC[C@@H]2CN1C[C@@H](O)[C@H](Cc1ccccc1)NC(=O)[C@H](CC(N)=O)NC(=O)c1ccc2ccccc2n1
> 5 | NC(=O)c1c(N)sc2c1CCCCC2
> 5 | CC(C)c1cc2c(cc1S(=O)(=O)O)[C@@]1(C)CCC[C@@](C)(C(=O)O)[C@@H]1CC2
> 5 | O=c1ccc2ncc(=O)n3c2n1CC3CN1CCC(NCc2cc3c(cn2)OCCC3)CC1 (stereo not given)
> 5 | N[C@H](CCC(=O)N[C@@H](Cc1c[nH]c2ccccc12)C(=O)O)C(=O)O
> 5 | COc1ccc(C(C)(C)C)cc1NC(=O)C(=O)c1ccc(OCCN2CCOCC2)c2ccccc12
> 5 | CC(C)(C)c1ccc(C(=O)NC(=O)N2CCCc3ccccc32)cc1
4.12 | CC[C@@]1(O)C(=O)OCc2c1cc1n(c2=O)Cc2cc3c(CN(C)C)c(O)ccc3nc2-1
> 5 | Cc1c(F)cccc1NC(=O)Nc1ccc(Cl)c(S(=O)(=O)[C@H]2CCCNC2)c1O
> 5 | CSc1ccc2c(c1)C(N1CCN(C)CC1)Cc1ccccc1S2 (stereo not given)
> 5 | Cc1cc(O)c2c(c1)C(=O)c1c(I)c(O)c(I)c(O)c1C2=O
